system: rabbit skeletal myofibrils (fast skeletal myofibrils); experiment: Activation of fast skeletal myofibrils (PUMA assay, AC1.4); type: biochemical; conditions: calcium at pCa25, AC1.4 = concentration at which the compound increased the enzymatic activity
Method: Preparation of fast skeletal myofibrils: Rabbit skeletal myofibrils were prepared based upon the method of Herrmann et al. (Biochem. 32(28):7255-7263(1993). Myofibrils were prepared from rabbit psoas muscle purchased from Pel-Freez Biologicals (Arkansas) within 2 days of ordering, stored on ice. Minced muscle was homogenized in 10 volumes of ice-cold “standard” buffer (50 mM Tris, pH 7.4, 0.1 M KOAc, 5 mM KCl, 2 mM dithiothreitol (DTT), 0.2 mM phenylmethylsulfonyl fluoride (PMSF), 10 μM leupeptin, 5 μM pepstatin, and 0.5 mM sodium azide) containing 5 mM ethylenediaminetetraacetic acid (EDTA) and 0.5% Triton X-100 using an Omni-Macro homogenizer. Myofibrils were recovered by low speed centrifugation (3000 rpm for 10 minutes) and washed 2 times in the Triton X-100 containing buffer to ensure removal of cellular membrane. Following the Triton washes, myofibrils were washed 3 times in “standard” buffer containing 2 mM magnesium acetate. A final wash in assay buffer (12 mM piperazine-1,4-bis(2-ethanesulfonic acid) (PIPES), pH 6.8, 60 mM KCl, 1 mM DTT) was performed and brought to 10% sucrose for flash freezing in liquid nitrogen and storage at −80° C.
Activation of Fast Skeletal Myofibrils: Fast fiber activators were identified by measuring the enzymatic activity of muscle myofibril preparations using the proprietary PUMA (trademark) (see, e.g., U.S. Pat. Nos. 6,410,254, 6,743,599, 7,202,051, and 7,378,254) assay system. Myofibril preparations consisted of rabbit skeletal muscle (approximately 90% fast fibers) that had been mechanically homogenized and washed with a detergent (Triton X-100) to remove cellular membranes. This preparation retained all of the sarcomeric components in a native conformation and the enzymatic activity was still regulated by calcium. Compounds were tested using a myofibril suspension and a level of calcium sufficient to increase enzymatic activity of the myofibrils to 25% of their maximal rate (termed pCa25). Enzymatic activity was tracked via a pyruvate kinase and lactate dehydrogenase-coupled enzyme system. This assay regenerates myosin-produced ADP into ATP by oxidizing NADH, producing an absorbance change at 340 nm. The buffering system was 12 mM PIPES, 2 mM MgCl2, 1 mM DTT at pH 6.8 (PM12 buffer). […] In Table 9, “Example Compound” refers to the compound labeled with the same number in Table 2.

Compared with `CC[C@H](C)[C@H]1C(=O)Nc2ccccc2CN1C(=O)NCCN1CC[C@H](O)C1` [Compound 223, (S)-3-((S)-sec-butyl)-N-(2-((S)-3-hydroxypyrrolidin-1-yl)ethyl)-2-oxo-1,2,3,5-tetrahydro-4H-benzo[e][1,4]diazepine-4-carboxamide], `CC[C@H](C)[C@H]1C(=O)Nc2ccccc2CN1C(=O)NCCCCN1CCC(C(N)=O)CC1` [Compound 262, (S)-3-((S)-sec-butyl)-N-(4-(4-carbamoylpiperidin-1-yl)butyl)-2-oxo-1,2,3,5-tetrahydro-4H-benzo[e][1,4]diazepine-4-carboxamide] is 3.1-fold lower in AC1.4: 1.43 µM for the first, 0.46 µM for the second.

First: CC[C@H](C)[C@H]1C(=O)Nc2ccc(F)cc2CN1/C(N)=N\C#N [Compound 71, (S,Z)-3-((S)-sec-butyl)-N′-cyano-7-fluoro-2-oxo-1,2,3,5-tetrahydro-4H-benzo[e][1,4]diazepine-4-carboximidamide]
Second: CC[C@H](C)[C@H]1C(=O)Nc2ccc(F)cc2CN1C(=O)N[C@H]1CC[C@H](O)CC1 [Compound 352, (S)-3-((S)-sec-butyl)-7-fluoro-N-((1r,4S)-4-hydroxycyclohexyl)-2-oxo-1,2,3,5-tetrahydro-4H-benzo[e][1,4]diazepine-4-carboxamide]
The AC1.4 of the first is 4.9-fold lower: 0.15 µM for the first, 0.73 µM for the second.

`CC[C@H](C)[C@H]1C(=O)Nc2ccccc2CN1C(=O)Nc1cccn(CCOC)c1=O` [Compound 255, (S)-3-((S)-sec-butyl)-N-(1-(2-methoxyethyl)-2-oxo-1,2-dihydropyridin-3-yl)-2-oxo-1,2,3,5-tetrahydro-4H-benzo[e][1,4]diazepine-4-carboxamide] and `CC[C@H](C)[C@H]1C(=O)Nc2ccccc2CN1C(=O)Nc1ccc(=O)n(C)c1` [Compound 93, (S)-3-((S)-sec-butyl)-N-(1-methyl-6-oxo-1,6-dihydropyridin-3-yl)-2-oxo-1,2,3,5-tetrahydro-4H-benzo[e][1,4]diazepine-4-carboxamide] are the same in AC1.4: 0.13 µM for the first, 0.13 µM for the second.

Going from `CC[C@H](C)[C@H]1C(=O)Nc2ccccc2CN1C(=O)[C@H]1CCCN1CCC(N)=O` [Compound 188, 3-((R)-2-((S)-3-((S)-sec-butyl)-2-oxo-2,3,4,5-tetrahydro-1H-benzo[e][1,4]diazepine-4-carbonyl)pyrrolidin-1-yl)propanamide] to `CC[C@H](C)[C@H]1C(=O)Nc2ccccc2CN1C(=O)CCN1CCC[C@H]1C(N)=O` [Compound 186, (S)-1-(3-((S)-3-((S)-sec-butyl)-2-oxo-1,2,3,5-tetrahydro-4H-benzo[e][1,4]diazepin-4-yl)-3-oxopropyl)pyrrolidine-2-carboxamide], the AC1.4 falls from 3.46 µM to 2.18 µM (1.6-fold).

First: CC[C@H](C)[C@H]1C(=O)Nc2ccccc2CN1C(=O)N[C@H]1CCCNC1=O [Compound 216, (S)-3-((S)-sec-butyl)-2-oxo-N-((S)-2-oxopiperidin-3-yl)-1,2,3,5-tetrahydro-4H-benzo[e][1,4]diazepine-4-carboxamide]
Second: CC[C@H](C)[C@H]1C(=O)Nc2ccccc2CN1C(=O)[C@H]1CCCO1 [Compound 107, (S)-3-((S)-sec-butyl)-4-((R)-tetrahydrofuran-2-carbonyl)-1,3,4,5-tetrahydro-2H-benzo[e][1,4]diazepin-2-one]
The AC1.4 of the first is 9.1-fold higher: 2.64 µM for the first, 0.29 µM for the second.

Compared with `CC[C@H](C)[C@H]1C(=O)Nc2ccccc2CN1C(=O)N(C)C(C)C` [Compound 297, (S)-3-((S)-sec-butyl)-N-isopropyl-N-methyl-2-oxo-1,2,3,5-tetrahydro-4H-benzo[e][1,4]diazepine-4-carboxamide], `CC[C@H](C)[C@H]1C(=O)Nc2ccccc2CN1C(=O)N(C)CC(N)=O` [Compound 228, (S)-N-(2-amino-2-oxoethyl)-3-((S)-sec-butyl)-N-methyl-2-oxo-1,2,3,5-tetrahydro-4H-benzo[e][1,4]diazepine-4-carboxamide] is 3.3-fold higher in AC1.4: 1.13 µM for the first, 3.76 µM for the second.

Compared with `CCC(CC)[C@H]1C(=O)Nc2ccccc2CN1C(N)=O` [Compound 129, (S)-2-oxo-3-(pentan-3-yl)-1,2,3,5-tetrahydro-4H-benzo[e][1,4]diazepine-4-carboxamide], `CC[C@H](C)[C@H]1C(=O)Nc2ccccc2CN1CCC(=O)NC` [Compound 314, 3-((S)-3-((S)-sec-butyl)-2-oxo-1,2,3,5-tetrahydro-4H-benzo[e][1,4]diazepin-4-yl)-N-methylpropanamide] is 7.2-fold higher in AC1.4: 0.10 µM for the first, 0.72 µM for the second.

Compared with `CC[C@H](C)[C@H]1C(=O)Nc2cc(F)ccc2CN1C(=O)N1CC(O)C1` [Compound 76, (S)-3-((S)-sec-butyl)-8-fluoro-4-(3-hydroxyazetidine-1-carbonyl)-1,3,4,5-tetrahydro-2H-benzo[e][1,4]diazepin-2-one], `CC[C@H](C)[C@H]1C(=O)Nc2cc(F)ccc2CN1C(=O)N1CC[C@H](O)C1` [Compound 359, (S)-3-((S)-sec-butyl)-8-fluoro-4-((S)-3-hydroxypyrrolidine-1-carbonyl)-1,3,4,5-tetrahydro-2H-benzo[e][1,4]diazepin-2-one] is 5.5-fold higher in AC1.4: 0.14 µM for the first, 0.77 µM for the second.

Compared with `CC[C@H](C)[C@H]1C(=O)Nc2ccccc2CN1C(=O)c1cc2ccncc2[nH]1` [Compound 151, (S)-3-((S)-sec-butyl)-4-(1H-pyrrolo[2,3-c]pyridine-2-carbonyl)-1,3,4,5-tetrahydro-2H-benzo[e][1,4]diazepin-2-one], `CC[C@H](C)[C@H]1C(=O)Nc2ccccc2CN1C(=O)c1ccn(C)n1` [Compound 84, (S)-3-((S)-sec-butyl)-4-(1-methyl-1H-pyrazole-3-carbonyl)-1,3,4,5-tetrahydro-2H-benzo[e][1,4]diazepin-2-one] is 1.5-fold higher in AC1.4: 0.06 µM for the first, 0.09 µM for the second.

`CC[C@H](C)[C@H]1C(=O)Nc2ccccc2CN1C(=O)NCC1(CO)COC1` [Compound 261, (S)-3-((S)-sec-butyl)-N-((3-(hydroxymethyl)oxetan-3-yl)methyl)-2-oxo-1,2,3,5-tetrahydro-4H-benzo[e][1,4]diazepine-4-carboxamide] and `CC[C@H](C)[C@H]1C(=O)Nc2ccccc2CN1C(=O)N1CC[C@H](C(=O)NC)C1` [Compound 294, (S)-1-((S)-3-((S)-sec-butyl)-2-oxo-2,3,4,5-tetrahydro-1H-benzo[e][1,4]diazepine-4-carbonyl)-N-methylpyrrolidine-3-carboxamide] are within 1.5-fold of each other in AC1.4: 3.34 µM for the first, 2.32 µM for the second.

`CC[C@H](C)[C@H]1C(=O)Nc2ccccc2CN1C(=O)N1CCC(N(C)C)CC1` [Compound 239, (S)-3-((S)-sec-butyl)-4-(4-(dimethylamino)piperidine-1-carbonyl)-1,3,4,5-tetrahydro-2H-benzo[e][1,4]diazepin-2-one] and `CC[C@H](C)[C@H]1C(=O)Nc2ccccc2CN1C(=O)N1CCN(C(=O)OC)CC1` [Compound 243, methyl 4-((S)-3-((S)-sec-butyl)-2-oxo-2,3,4,5-tetrahydro-1H-benzo[e][1,4]diazepine-4-carbonyl)piperazine-1-carboxylate] are within 1.5-fold of each other in AC1.4: 1.65 µM for the first, 1.93 µM for the second.

Compared with `CC[C@H](C)[C@H]1C(=O)Nc2ccccc2C(C)(C)N1C(N)=O` [Compound 63, (S)-3-((S)-sec-Butyl)-5,5-dimethyl-2-oxo-1,2,3,5-tetrahydro-4H-benzo[e][1,4]diazepine-4-carboxamide], `CC[C@H](C)[C@H]1C(=O)Nc2cccc(F)c2CN1C(=O)NC` [Compound 338, (S)-3-((S)-sec-butyl)-6-fluoro-N-methyl-2-oxo-1,2,3,5-tetrahydro-4H-benzo[e][1,4]diazepine-4-carboxamide] is 6.9-fold higher in AC1.4: 0.10 µM for the first, 0.69 µM for the second.

Going from `COCCn1cc(C(=O)N2Cc3ccccc3NC(=O)[C@@H]2C(C)C)cn1` [Compound 330, (S)-3-isopropyl-4-(1-(2-methoxyethyl)-1H-pyrazole-4-carbonyl)-1,3,4,5-tetrahydro-2H-benzo[e][1,4]diazepin-2-one] to `Cn1cc(C(=O)N2Cc3ccccc3NC(=O)[C@@H]2C2CCC2)cn1` [Compound 122, (S)-3-cyclobutyl-4-(1-methyl-1H-pyrazole-4-carbonyl)-1,3,4,5-tetrahydro-2H-benzo[e][1,4]diazepin-2-one], the AC1.4 rises from 1.71 µM to 3.16 µM (1.8-fold).

Compared with `COCCN1Cc2ccccc2NC(=O)[C@@H]1C1CCCCCC1` [Compound 309, (S)-3-cycloheptyl-4-(2-methoxyethyl)-1,3,4,5-tetrahydro-2H-benzo[e][1,4]diazepin-2-one], `CC[C@H](C)[C@H]1C(=O)Nc2ccccc2[C@@H](C(=O)OC)N1C(=O)c1cnn(C)c1` (single isomer, unassigned) [Compound 321] is 4.9-fold lower in AC1.4: 0.59 µM for the first, 0.12 µM for the second.

`CC[C@H](C)[C@H]1C(=O)Nc2cnccc2CN1c1c(N)c(=O)c1=O` [Compound 378, 3-amino-4-((S)-3-((S)-sec-butyl)-2-oxo-1,2,3,5-tetrahydro-4H-pyrido[3,4-e][1,4]diazepin-4-yl)cyclobut-3-ene-1,2-dione] was tested, and the AC1.4 was 0.15 µM.

From US12441691B2 (Cytokinetics, Inc., priority 2020, dated 2025)
